Laboratory results taken from article doi:10.1101/2023.08.10.552651v1 (biorxiv, 2023).

How the values were obtained:
Experiment in all cases: isothermal titration calorimetry
Format in all cases: binding
Settings in all cases: Tris-HCl, 150 mM NaCl, pH 7.9-8.0, 20 °C; 30 µM trimer; one-site model
ScSbtB (SbtB) [1] = biological target: ScSbtB (SbtB) (Synechocystis sp. PCC 6803, UniProt P73954, R43A)
ScSbtB (SbtB) [2] = biological target: ScSbtB (SbtB) (Synechocystis sp. PCC 6803, UniProt P73954, K40A)
ScSbtB (SbtB) (Synechocystis sp. PCC 6803, UniProt P73954, K40A), sequence (P73954 2-110 K40A): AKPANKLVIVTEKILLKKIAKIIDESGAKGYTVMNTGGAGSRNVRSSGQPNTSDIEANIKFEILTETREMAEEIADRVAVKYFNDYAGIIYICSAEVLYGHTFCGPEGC

ScSbtB (SbtB) [3] = biological target: ScSbtB (SbtB) (Synechocystis sp. PCC 6803, UniProt P73954, R46A)
ScSbtB (SbtB) (Synechocystis sp. PCC 6803, UniProt P73954, R46A), sequence (P73954 2-110 R46A): as the sequence (P73954 2-110 K40A) above, with A39K, R45A counted along it

ScSbtB (SbtB) (Synechocystis sp. PCC 6803, UniProt P73954, R43A), sequence (P73954 2-110 R43A): as the sequence (P73954 2-110 K40A) above, with A39K, R42A counted along it

Kd (ScSbtB (SbtB) [1]) [µM]	Kd (ScSbtB (SbtB) [2]) [µM]	Kd (ScSbtB (SbtB) [3]) [µM]	SMILES
472	877	435	Nc1ncnc2c1ncn2[C@@H]1O[C@H](COP(=O)(O)OP(=O)(O)O)[C@@H](O)[C@H]1O [ADP]
213	357		Nc1ncnc2c1ncn2[C@@H]1O[C@H](COP(=O)(O)OP(=O)(O)OP(=O)(O)O)[C@@H](O)[C@H]1O [ATP]
		94.3	Nc1ncnc2c1ncn2[C@@H]1O[C@H](COP(=O)(O)O)[C@@H](O)[C@H]1O [AMP]
